Earlier results on one compound are cited in patent publication US8329229B2, “Steam distillation of catmint plants” (E I du Pont de Nemours and Company, priority 2006, dated 2012).

This data set deals with insect. To be noted: see U.S. Ser. No. 05/112,166.

Consider `CC1COC(=O)C2C(C)CCC12` (stereo not shown) [dihydronepetalactone], for which the insect repellency result is given as “exhibits insect repellency”.
